This series deals with vascular smooth muscle cells. Description: LDH release cytotoxicity assay with or without cyclic mechanical strain. As to conditions: 10 nM mithramycin, 24 hours. How it is done: A colorimetric cytotoxicity assay was used assess the presence of cell death during mechanical loading/drug treatment (Promega). This assay measures release of lactate dehydrogenase (LDH) activity and was used according to the manufactures directions. Mechanical stretch to cells in culture using the various waveforms were applied to cell culture. To confirm the biocompatibility of the cells in the system, cell death was measured through an LDH release assay. The maximal strain of 5% was set to be identical between the groups. After 4 hours of mechanical loading the cytotoxicity of the mechanical load was used using a LDH release assay.
Toxicity testing in the presence of mechanical load. Toxicity of chemotherapeutic drug mithramycin is tested in the presence or absence of mechanical strain. Specifically, cyclic mechanical load of 5% maximal strain was applied to vascular smooth muscle cells in the presence or absence of 10 nM mithramycin for 24 hours. Experiments of vascular smooth muscle cells in the presence or absence of 10 nM mithramycin without mechanical strains were also performed for comparison during the same time period. Release of lactate dehydrogenase (LDH) was measured as indication of cell death and the results were plotted in FIG. 11.
For orientation: Release of lactate dehydrogenase indicates damage to the cell membrane.

For mithramycin, the “Release of lactate dehydrogenase (LDH) compared to control cells” value (absence of mechanical strain) is given as “about the same”. For the same substance, the “Increase in LDH release from the cells compared to the control” value (cyclic mechanical load of 5% maximal strain) is reported as “four folds increase”.
